By IC50 is commonly meant the midpoint of a concentration-inhibition curve.

Data set [1] deals with human pancreatic cancer cell line Panc-1 cell clusters. Kind of data set: Growth of human pancreatic cancer cell spheroids in suspension culture. The class given is cell-based. The protocol: Culturing of a human pancreatic cancer cell line in DMEM/F12 medium supplemented with B27, 20 ng/mL EGF, 20 ng/mL bFGF, and 4 μg/mL heparin using a low-adhesion dish allows formation of cell clusters, and the cells can be cultured in a suspended state. Under these conditions, the cells can be cultured such that they show increased levels of several cancer stem cell markers as well as markers reported for other cancers. First, the cell clusters containing the cells positive for the cancer stem cell markers were cultured in a medium supplemented with Am80 for 1 week, and the influences of Am80 on the growth of cell clusters and the expression levels of the cancer stem cell markers were analyzed.

Data set [2] has as its system Human Pancreatic Cancer Cell Panc-1 Spheroids. Briefly: ALDH activity (ALDEFLUOR, flow cytometry) in Panc-1 spheroids. The note with it: suspension culture with Am80 for 1 week. The class given is cell-based. As for the experimental part: As shown in Example 1, Am80 suppresses formation of cell clusters of the pancreatic cancer cell line in the suspension-culture state, and this might be due to a decrease in the number of the stem cells that act as the seeds of the cell clusters. It is known that the activity of aldehyde dehydrogenase (ALDH) is high in hematopoietic stem cells and progenitor cells, but low in differentiated cells. In view of this, a precursor Bodipy-aminoacetaldehyde (ALDEFLUOR, Stem Cell Technologies) was added to pancreatic cancer cells prepared by performing suspension culture in the presence of Am80 for 1 week, and the number of cells positive for the fluorescence of Bodipy-aminoacetate produced by metabolism by the aldehyde dehydrogenase activity was analyzed by quantification by flow cytometry.
On the technique in general: Flow cytometry measures light scatter and fluorescence of single cells or particles in a stream.

The test system is the same in data set [3]. Kind of data set: CD24+/CD44+/ESA+ cells by flow cytometry in Panc-1 spheroids. The class given is cell-based. From the text: Pancreatic cancer cells prepared by performing suspension culture in the presence of Am80 for 1 week was subjected to analysis of expression of cancer stem cell surface markers at the protein level by flow cytometry using fluorescence-labeled primary antibodies.

The test system of data set [4] is CD133-positive human pancreatic cancer stem cells. Briefly: Cell migration in Boyden chambers. The class given is cell-based. The note with it: Am80 1 μM, CD133-positive fraction. The protocol:
Pancreatic cancer cells containing pancreatic cancer stem cells were separated into CD133-positive cells and negative cells using magnetic antibody beads, and Am80 was added at 1 μM to the fractions, followed by culturing the cells in Boyden chambers and then observing the cells migrated into the back side of the membrane.

The test system of data set [5] is human pancreatic cancer cells containing pancreatic cancer stem cells. Kind of data set: Liver metastasis after transplantation to the pancreas of nude mice. The data set is classed as in vivo. The note with it: Am80 3 mg/kg/day for 1 month. The protocol:
Pancreatic cancer cells (1×10^6 cells) containing pancreatic cancer stem cells were transplanted to the pancreas of nude mice, and the size of a tumor formed by metastasis to the liver was measured 1 month later. Am80 was administered at 3 mg/kg/day for 1 month.

For data set [6] the test system is unchanged. Kind of data set: Growth of subcutaneously transplanted pancreatic cancer in nude mice. The class given is in vivo. The note with it: Am80 3 mg/kg/day for 1 month, vs control. The protocol:
(§1) Pancreatic cancer cells (1×10^6 cells) containing pancreatic cancer stem cells were subcutaneously transplanted to nude mice. Mice in which tumor formation was found 2 weeks later were subjected to administration of Am80 for 1 month at 3 mg/kg/day.
Pancreatic cancer cells (1×10^6 cells) containing pancreatic cancer stem cells were subcutaneously transplanted to nude mice. Mice in which tumor formation was found 2 weeks later were subjected to daily administration of Am80 at 3 mg/kg/day and administration of gemcitabine at 50 mg/kg at intervals of 3 days for 1 month. […] Gem herein represents gemcitabine.
Pancreatic cancer cells (1×10^6 cells) containing pancreatic cancer stem cells were subcutaneously transplanted to nude mice. Mice in which tumor formation was found 2 weeks later were subjected to daily administration of Am80 at 3 mg/kg/day and administration of VPA at 500 mg/kg at intervals of 3 days for 1 month.

A short description of data set [7]: Body weight of tumor-bearing nude mice. The data set is classed as in vivo. The note with it: Am80 3 mg/kg/day for 1 month. As for the experimental part: as §1
The test system of data set [8] is Human Pancreatic Cancer Stem Cells Transplanted to Nude Mice. Kind of data set: Ratio of pancreatic cancer stem cells in removed tumor (anti-CD133 flow cytometry). The data set is classed as in vivo. Particulars: Am80 3 mg/kg/day for 1 month, vs control. As for the experimental part: Pancreatic cancer cells (1×10^6 cells) containing pancreatic cancer stem cells were subcutaneously transplanted to nude mice. Mice in which tumor formation was found 2 weeks later were subjected to administration of Am80 for 1 month at 3 mg/kg/day. Thereafter, the tumor was removed, and the tumor cells were treated by trypsin, followed by measuring the ratio of pancreatic cancer stem cells by flow cytometry using an anti-CD133 antibody.

For data set [9], the system named is human pancreatic cancer cells subcutaneously transplanted to nude mice. Briefly: Pathologic samples of tumor, morphology of cellular tissue. The data set is classed as in vivo. The note with it: Am80 3 mg/kg/day for 1 month, vs control. As for the experimental part:
Pancreatic cancer cells (1×10^6 cells) containing pancreatic cancer stem cells were subcutaneously transplanted to nude mice. Mice in which tumor formation was found 2 weeks later were subjected to administration of Am80 for 1 month at 3 mg/kg/day. Pathologic samples of each tumor were prepared to evaluate morphology of cellular tissue.

The subject of data set [10] is Human pancreatic cancer cells. Briefly: Sphere formation of gemcitabine-treated pancreatic cancer cells (colony count). The data set is classed as cell-based. The note with it: cells cultured with gemcitabine (10 nM) 1 week, then Am80 1 week. As for the experimental part: Human pancreatic cancer cells were cultured in the suspension-culture state in the presence of gemcitabine (10 nM) for 1 week. Thereafter, Am80 was added to the culture, and suspension culture was carried out for 1 week, followed by counting the number of colonies formed.

The subject of data set [11] is Human Leukemia Cell Line Kasumi-1. Briefly: Growth inhibition of Kasumi-1, isobologram. The data set is classed as cell-based. Particulars: Homo sapiens; Kasumi-1, RPMI1640 with 20% FBS. As for the experimental part: A human leukemia cell line Kasummi-1, containing cells positive for cancer stem cell markers, was cultured in RPMI1640 medium supplemented with 20% FBS, and the growth inhibitory action by the combination of Am80 and 5-AZ was studied using Isobologram. […] These concentrations were taken as 1.0, and the points corresponding to 1.0 in the two axes were connected to each other via a straight line. In cases where the ratio observed for the combination effect is on the line, the effect is additive, and, in cases where the ratio is below the line, the effect is synergistic.

Data set [12] has as its system human breast cancer cell line MCF-7. Kind of data set: Growth inhibition of MCF-7 in vitro. The data set is classed as cell-based. The note with it: Homo sapiens, MCF7; MCF-7, 96 hours of exposure, RPMI1640 with 2% FBS. As for the experimental part:
A human breast cancer cell line MCF-7, containing cells positive for cancer stem cell markers, was cultured in RPMI1640 medium supplemented with 2% FBS, and the growth inhibitory action by the combination of Am80 and 5-AZ was studied. The IC50 values of the agents determined by 96 hours of the exposure were 1 μM and 20 μM, respectively. Thus, in order to study the growth inhibitory action, Am80 was used within the concentration range of 0.125 μM to 1 μM with a common ratio of 2, and 5-AZ was used within the concentration range of 2.5 μM to 20 μM with a common ratio of 2. In cases of use of these agents in combination, the growth inhibitory action was studied using these concentrations.

The mark [13] stands for this setting: suspension culture with Am80 for 1 week.

For the molecule `CC1(C)CCC(C)(C)c2cc(NC(=O)c3ccc(C(=O)O)cc3)ccc21` [Am80, tamibarotene], the “sizes of the cell clusters” value in data set [1] (cultured for a total of 2 weeks in Am80-containing medium) is on record as “further decreased”. The “growth of the cell clusters” value in [1] (setting [13]) is listed as “suppressed dependently on the concentration”. For the same molecule, in data set [1] (setting [13]), the number of cells result was “decreased dependently on the concentration”. For the same molecule, the “ALDH activity (ALDH-positive cells)” value in data set [2] is “concentration-dependent decrease”. In addition, the “abundance of cells positive for CD24+/CD44+/ESA+” value in [3] (10 μM Am80, suspension culture 1 week) is given as “reduced by half”; in [3] (addition of Am80, suspension culture 1 week), “significantly decreased”. Also, the cell migration ability result in data set [4] was “remarkable suppression”. Also, the “metastasis of the pancreatic cancer (size of tumor formed by metastasis to the liver)” value in data set [5] is reported as “could be suppressed compared to the control”. Besides, the “growth of the pancreatic cancer” value in [6] was “could be suppressed in vivo compared to the control”. For the same molecule, the body weight entry in [7] was “not influenced”. The “ratio of pancreatic cancer stem cells (CD133) in tumor” value in data set [8] is reported as “action to suppress pancreatic cancer stem cells in vivo”. In addition, in data set [9], the “morphology of pancreatic cancer tissue” value is on record as “differentiated morphology”. For the same molecule, in data set [10], the “sphere formation (number of colonies formed)” value is “in vitro inhibitory effect on sphere formation”. The IC50 in data set [11] and in [12] was 1000 nM in each case.

Source of the values: patent US20200061007A1, “CANCER STEM CELL PROLIFERATION INHIBITOR” (NATIONAL INSTITUTE OF ADVANCED INDUSTRIAL SCIENCE AND …, priority 2014, published 2020).
